Source: US11964971B2, “Methods and compositions for modulating splicing” (Skyhawk Therapeutics, Inc., priority 2019, dated 2024)

Experiments:
[1] = system: MDR1-MDCK cell monolayers; conditions: dog, MDCK-MDR1, 120 min, 5 μM, pH 7.4
[2] = system: MDR1; experiment: in vitro; conditions: dog; for Papp A→B at 120 min, 5 μM: MDCK-MDR1, pH 7.4, MDCK-MDR1: Papp A-B (10^−6, cm/s); for Papp B→A at 120 min, 5 μM: MDCK-MDR1, pH 7.4, MDCK-MDR1: Papp B-A (10^−6, cm/s)
[3] = system: SMN protein; experiment: SMN protein assay (MSD) in SMA patient fibroblasts (GM03813); format: cell-based, human
Procedure: Compounds are tested on spinal muscular atrophy (SMA) patient fibroblasts (GM03813, Coriell) at doses ranging from 2.5 μM to 0.6 nM. 7000 cells/well are seeded in 96-well plates. Compounds are incubated for 48 hours and the cells were lysed with 100 μL of lysis buffer. 20 μL of lysate is used for SMN protein measurement by Mesoscale Discovery (MSD) assay developed by PharmOptima (Michigan). A standard curve prepared with SMN protein ranging from […] is used in each MSD plate to calculate the absolute SMN protein amount in each sample.

[4] = system: MDR1 (P-gp); experiment: MDCK-MDR1 permeability assay, blood-brain-barrier penetration potential; conditions: dog, MDCK-MDR1, pH 7.4, MDCK-MDR1 Efflux Ratio

CN(c1cnc(-c2cc3ccc(OCF)nc3cc2O)cn1)[C@H]1C[C@@H]2CCC(N2)[C@H]1F (single isomer, unassigned) [Compound 19E2]
MDCK-MDR1: % Recov A-B (%) [1]: 28%
MDCK-MDR1: % Recov B-A (%) [1]: 62%
Papp A→B at 120 min, 5 μM [2]: 2.81 ×10⁻⁶ cm/s
Papp B→A at 120 min, 5 μM [2]: 17.1 ×10⁻⁶ cm/s
EC50 [3]: 501 to 10000 nM
efflux ratio at 120 min, 5 μM [4]: 6

COc1cc(-c2cc(O)c(-c3cnc(N(C)[C@H]4C[C@@H]5CCC(N5)[C@H]4F)cn3)cc2F)cc(F)n1 (single isomer, unassigned) [Compound 31E2]
MDCK-MDR1: % Recov A-B (%) [1]: 59%
MDCK-MDR1: % Recov B-A (%) [1]: 67%
Papp A→B at 120 min, 5 μM [2]: 0.33 ×10⁻⁶ cm/s
Papp B→A at 120 min, 5 μM [2]: 0.5 ×10⁻⁶ cm/s
EC50 [3]: 16 to 50 nM
efflux ratio at 120 min, 5 μM [4]: 2

CN(c1cnc(-c2cc(F)c(-n3ccnn3)cc2O)cn1)[C@@H]1CC2CC[C@H](N2)[C@@H]1F (single isomer, unassigned) [Compound 21E1]
MDCK-MDR1: % Recov A-B (%) [1]: 83%
MDCK-MDR1: % Recov B-A (%) [1]: 91%
Papp A→B at 120 min, 5 μM [2]: 8.48 ×10⁻⁶ cm/s
Papp B→A at 120 min, 5 μM [2]: 43.5 ×10⁻⁶ cm/s
EC50 [3]: 501 to 10000 nM
efflux ratio at 120 min, 5 μM [4]: 5

CN(c1cnc(-c2cc(F)c(-n3ccnn3)cc2O)cn1)[C@H]1C[C@@H]2CCC(N2)[C@H]1F (single isomer, unassigned) [Compound 21E2]
MDCK-MDR1: % Recov A-B (%) [1]: 78%
MDCK-MDR1: % Recov B-A (%) [1]: 85%
Papp A→B at 120 min, 5 μM [2]: 11.3 ×10⁻⁶ cm/s
Papp B→A at 120 min, 5 μM [2]: 48 ×10⁻⁶ cm/s
EC50 [3]: 501 to 10000 nM
efflux ratio at 120 min, 5 μM [4]: 4

COc1cc(-c2ccc(-c3cnc(N(C4CC4)[C@@H]4CC5CC[C@H](N5)[C@@H]4F)cn3)c(O)c2)ncn1 (single isomer, unassigned) [Compound 56E1]
MDCK-MDR1: % Recov A-B (%) [1]: 17%
MDCK-MDR1: % Recov B-A (%) [1]: 51%
Papp A→B at 120 min, 5 μM [2]: 2.09 ×10⁻⁶ cm/s
Papp B→A at 120 min, 5 μM [2]: 7.91 ×10⁻⁶ cm/s
EC50 [3]: 501 to 10000 nM
efflux ratio at 120 min, 5 μM [4]: 4

CN(c1cnc(-c2cc(F)c(-c3ccn(CF)c(=O)c3)cc2O)cn1)[C@H]1C[C@@H]2CCC(N2)[C@H]1F (single isomer, unassigned) [Compound 32E2]
MDCK-MDR1: % Recov A-B (%) [1]: 86%
MDCK-MDR1: % Recov B-A (%) [1]: 88%
Papp A→B at 120 min, 5 μM [2]: 2.58 ×10⁻⁶ cm/s
Papp B→A at 120 min, 5 μM [2]: 51.2 ×10⁻⁶ cm/s
EC50 [3]: 16 to 50 nM
efflux ratio at 120 min, 5 μM [4]: 20

Oc1cc(-c2cn[nH]c2)c(F)cc1-c1cnc(N(C2CC2)[C@@H]2CC3CC[C@H](N3)[C@@H]2F)cn1 (single isomer, unassigned) [Compound 41E1]
MDCK-MDR1: % Recov A-B (%) [1]: 54%
MDCK-MDR1: % Recov B-A (%) [1]: 75%
Papp A→B at 120 min, 5 μM [2]: 6.63 ×10⁻⁶ cm/s
Papp B→A at 120 min, 5 μM [2]: 39.2 ×10⁻⁶ cm/s
EC50 [3]: 501 to 10000 nM
efflux ratio at 120 min, 5 μM [4]: 8

Cn1cc(-c2ccc(-c3cnc(N(C4CC4)[C@@H]4CC5CC[C@H](N5)[C@@H]4F)cn3)c(O)c2)cn1 (single isomer, unassigned) [Compound 49E1]
MDCK-MDR1: % Recov A-B (%) [1]: 47%
MDCK-MDR1: % Recov B-A (%) [1]: 65%
Papp A→B at 120 min, 5 μM [2]: 4.73 ×10⁻⁶ cm/s
Papp B→A at 120 min, 5 μM [2]: 26.5 ×10⁻⁶ cm/s
EC50 [3]: 501 to 10000 nM
efflux ratio at 120 min, 5 μM [4]: 6

C[C@]12CC[C@](C)(N1)[C@H](F)[C@H](Oc1cnc(-c3ccc(-c4cn[nH]c4)cc3O)cn1)C2 [Compound 2E2, 2-(5-(((1S,2S,3R,5R)-2-fluoro-1,5-dimethyl-8-azabicyclo[3.2.1]octan-3-yl)oxy)pyrazin-2-yl)-5-(1H-pyrazol-4-yl)phenol]
MDCK-MDR1: % Recov A-B (%) [1]: 71%
MDCK-MDR1: % Recov B-A (%) [1]: 79%
Papp A→B at 120 min, 5 μM [2]: 9.6 ×10⁻⁶ cm/s
Papp B→A at 120 min, 5 μM [2]: 34.7 ×10⁻⁶ cm/s
EC50 [3]: 501 to 10000 nM
efflux ratio at 120 min, 5 μM [4]: 4

Cn1cc(-c2ccc(-c3cnc(N(C4CC4)[C@@H]4C[C@@]5(C)CC[C@](C)(N5)[C@@H]4F)cn3)c(O)c2)cn1 [Compound 75E1, 2-(5-(cyclopropyl((1S,2R,3R,5R)-2-fluoro-1,5-dimethyl-8-azabicyclo[3.2.1]octan-3-yl)amino)pyrazin-2-yl)-5-(1-methyl-1H-pyrazol-4-yl)phenol]
MDCK-MDR1: % Recov A-B (%) [1]: 40%
MDCK-MDR1: % Recov B-A (%) [1]: 70%
Papp A→B at 120 min, 5 μM [2]: 2.11 ×10⁻⁶ cm/s
Papp B→A at 120 min, 5 μM [2]: 16.1 ×10⁻⁶ cm/s
EC50 [3]: 501 to 10000 nM
efflux ratio at 120 min, 5 μM [4]: 8

COc1cc(-c2cc(O)c(-c3cnc(N(C4CC4)[C@@H]4CC5CC[C@H](N5)[C@@H]4F)cn3)cc2F)cc(F)n1 (single isomer, unassigned) [Compound 37E1]
MDCK-MDR1: % Recov A-B (%) [1]: 18%
MDCK-MDR1: % Recov B-A (%) [1]: 53%
Papp A→B at 120 min, 5 μM [2]: 1.41 ×10⁻⁶ cm/s
Papp B→A at 120 min, 5 μM [2]: 2.73 ×10⁻⁶ cm/s
EC50 [3]: 501 to 10000 nM
efflux ratio at 120 min, 5 μM [4]: 2

Cn1cc(-c2cc(O)c(-c3cnc(N(C4CC4)[C@H]4C[C@@H]5CCC(N5)[C@H]4F)cn3)cc2F)cn1 (single isomer, unassigned) [Compound 35E2]
MDCK-MDR1: % Recov A-B (%) [1]: 32%
MDCK-MDR1: % Recov B-A (%) [1]: 61%
Papp A→B at 120 min, 5 μM [2]: 4.64 ×10⁻⁶ cm/s
Papp B→A at 120 min, 5 μM [2]: 17.9 ×10⁻⁶ cm/s
EC50 [3]: 501 to 10000 nM
efflux ratio at 120 min, 5 μM [4]: 4

CN(C)C(=O)c1cc(O)c(-c2cnc(N(C)[C@@H]3CC4CC[C@H](N4)[C@@H]3F)cn2)cc1F (single isomer, unassigned) [Compound 14E1]
MDCK-MDR1: % Recov A-B (%) [1]: 79%
MDCK-MDR1: % Recov B-A (%) [1]: 84%
Papp A→B at 120 min, 5 μM [2]: 0.75 ×10⁻⁶ cm/s
Papp B→A at 120 min, 5 μM [2]: 39.1 ×10⁻⁶ cm/s
EC50 [3]: 501 to 10000 nM
efflux ratio at 120 min, 5 μM [4]: 52

CN(c1cnc(-c2ccc(-c3cc[nH]c(=O)c3)cc2O)cn1)[C@H]1C[C@@H]2COCC(N2)[C@H]1F (single isomer, unassigned) [Compound 82E2]
MDCK-MDR1: % Recov A-B (%) [1]: 45%
MDCK-MDR1: % Recov B-A (%) [1]: 54%
Papp A→B at 120 min, 5 μM [2]: 0.27 ×10⁻⁶ cm/s
Papp B→A at 120 min, 5 μM [2]: 32.2 ×10⁻⁶ cm/s
EC50 [3]: 501 to 10000 nM
efflux ratio at 120 min, 5 μM [4]: 120

COc1cc(-c2cc(O)c(-c3cnc(N(C)[C@@H]4CC5CC[C@H](N5)[C@@H]4F)cn3)cc2F)cc(F)n1 (single isomer, unassigned) [Compound 31E1]
MDCK-MDR1: % Recov A-B (%) [1]: 58%
MDCK-MDR1: % Recov B-A (%) [1]: 65%
Papp A→B at 120 min, 5 μM [2]: 0.48 ×10⁻⁶ cm/s
Papp B→A at 120 min, 5 μM [2]: 0.8 ×10⁻⁶ cm/s
EC50 [3]: 501 to 10000 nM
efflux ratio at 120 min, 5 μM [4]: 2

CN(c1cnc(-c2ccc(-c3cc(=O)n(C)cn3)cc2O)cn1)[C@@H]1CC2CC[C@H](N2)[C@@H]1F (single isomer, unassigned) [Compound 47E1]
MDCK-MDR1: % Recov A-B (%) [1]: 74%
MDCK-MDR1: % Recov B-A (%) [1]: 78%
Papp A→B at 120 min, 5 μM [2]: 2.32 ×10⁻⁶ cm/s
Papp B→A at 120 min, 5 μM [2]: 52.8 ×10⁻⁶ cm/s
EC50 [3]: 101 to 500 nM
efflux ratio at 120 min, 5 μM [4]: 23

CN(c1cnc(-c2cc3oc(C(=O)N4CCC4)cc3cc2O)cn1)[C@H]1C[C@@H]2CCC(N2)[C@H]1F (single isomer, unassigned) [Compound 20E2]
MDCK-MDR1: % Recov A-B (%) [1]: 75%
MDCK-MDR1: % Recov B-A (%) [1]: 79%
Papp A→B at 120 min, 5 μM [2]: 0.94 ×10⁻⁶ cm/s
Papp B→A at 120 min, 5 μM [2]: 41.9 ×10⁻⁶ cm/s
EC50 [3]: 501 to 10000 nM
efflux ratio at 120 min, 5 μM [4]: 45

Oc1cc(-n2ccnn2)c(F)cc1-c1cnc(N(C2CC2)[C@H]2C[C@@H]3CCC(N3)[C@H]2F)cn1 (single isomer, unassigned) [Compound 11E2]
MDCK-MDR1: % Recov A-B (%) [1]: 69%
MDCK-MDR1: % Recov B-A (%) [1]: 72%
Papp A→B at 120 min, 5 μM [2]: 6.21 ×10⁻⁶ cm/s
Papp B→A at 120 min, 5 μM [2]: 41.1 ×10⁻⁶ cm/s
EC50 [3]: 501 to 10000 nM
efflux ratio at 120 min, 5 μM [4]: 7

COc1cc(-c2ccc(-c3cnc(N(C4CC4)[C@@H]4CC5CC[C@H](N5)[C@@H]4F)cn3)c(O)c2)ccn1 (single isomer, unassigned) [Compound 51E1]
MDCK-MDR1: % Recov A-B (%) [1]: 8%
MDCK-MDR1: % Recov B-A (%) [1]: 34%
Papp A→B at 120 min, 5 μM [2]: 1.5 ×10⁻⁶ cm/s
Papp B→A at 120 min, 5 μM [2]: 3.19 ×10⁻⁶ cm/s
EC50 [3]: 501 to 10000 nM
efflux ratio at 120 min, 5 μM [4]: 2

CN(c1cnc(-c2cc(F)c(-c3ccn(C)c(=O)c3)cc2O)cn1)[C@@H]1CC2CC[C@H](N2)[C@@H]1F (single isomer, unassigned) [Compound 13E1]
MDCK-MDR1: % Recov A-B (%) [1]: 454%
Papp B→A at 120 min, 5 μM [2]: 106 ×10⁻⁶ cm/s
EC50 [3]: 101 to 500 nM
efflux ratio at 120 min, 5 μM [4]: 49
